Measured values published in doi:10.1101/2023.03.03.530471v2 (bioRxiv, 2023).

Legend:
[1] = molecular target: recombinant full length PICK1 (Rattus norvegicus, UniProt Q9EP80); test: SEC of recombinant PICK1 incubated with mPD5; format: binding; conditions: PICK1 40 µM + mPD5 10 µM (4:1), Superdex200 Increase 10/300; PICK1 alone 10.9 mL
[2] = test system: naive mice; test: Barnes maze, spatial learning and memory; format: in vivo, mouse
[3] = Solubility by visual inspection; format: physicochemical; conditions: 10 mM PBS, molar equivalent of 250 mg/mL

Chain of recombinant full length PICK1 (Q9EP80 whole entry): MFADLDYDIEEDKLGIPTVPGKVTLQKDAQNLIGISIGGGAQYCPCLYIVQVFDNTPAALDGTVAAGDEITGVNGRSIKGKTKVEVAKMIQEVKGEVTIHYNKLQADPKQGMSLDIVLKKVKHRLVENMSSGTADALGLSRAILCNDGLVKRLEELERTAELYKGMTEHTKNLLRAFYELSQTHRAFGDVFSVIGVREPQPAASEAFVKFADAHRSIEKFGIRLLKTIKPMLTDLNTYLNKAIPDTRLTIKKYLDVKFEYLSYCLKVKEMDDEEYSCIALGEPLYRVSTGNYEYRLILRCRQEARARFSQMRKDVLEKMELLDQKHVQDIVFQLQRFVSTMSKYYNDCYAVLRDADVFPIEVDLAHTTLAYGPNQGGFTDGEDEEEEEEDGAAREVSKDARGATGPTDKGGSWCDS

Question: For `CCCCCCCCCCCCCC(=O)N(CCOCCOCCC(=O)N[C@@H](Cc1c[nH]cn1)C(=O)N[C@@H](Cc1c[nH]c2ccccc12)C(=O)N[C@@H](CC(C)C)C(=O)N[C@@H](CCCCN)C(=O)N[C@H](C(=O)O)C(C)C)CCOCCOCCC(=O)N[C@@H](Cc1c[nH]cn1)C(=O)N[C@@H](Cc1c[nH]c2ccccc12)C(=O)N[C@@H](CC(C)C)C(=O)N[C@@H](CCCCN)C(=O)N[C@H](C(=O)O)C(C)C` [mPD5, myristoyl-NPEG4-(HWLKV)2], which “peak elution volume of PICK1 in presence of mPD5” value [1] is on record?
Answer: two peaks at 8 mL and 9 mL

Question: And the “total distance moved, probe test day five” value ([2]; s.c. 10 µmol/kg 60 min before maze)?
Answer: no difference

Question: What about the “total distance moved, following reversal learning” value ([2]; s.c. 10 µmol/kg, probe test day nine) of the same molecule?
Answer: no difference was observed

Question: What about the “solubility in PBS” value [3] of the same molecule?
Answer: ≥ 130 mM
